# Target: T1, HuR (Homo sapiens, UniProt Q15717)
# T1 construct: Full length (residue 1–326), RRM1-2 (residue 1–190); inferred from pET14b vector and metal chelation chromatography) (N); made in house; host or cells: E. coli BL21 Rosetta
# Experiment: Fluorescence polarization (FP) competition / dose-response assay of HuR/RNA interaction
# Type: binding
# Settings: 10nM RNA and 50nM HuR, compounds serially diluted from 250uM
# Protocol: Fluorescence polarization measurements were performed in the 384-well plate format on a Biotek Synergy2 plate reader using 480/20nm excitation and 520/20nm emission filters. The NCI diversity set V library containing 1597 compounds was screened in this study. All samples were dissolved in phosphate buffer (50mM Napi, and 100mM NaCl, 5mM TCEP at pH 7.0). The assay mixture contained 50nM HuR and 10nM RNA to yield FP values approximately 80% of the maximum value observed for fully bound RNA. NCI diversity set V library in 96-well format (10mM stock in DMSO) was transferred to 384-well plate, and then diluted into 50uM in phosphate buffer. 5ul of 50uM compound stock was added to 20 ul assay mixture to yield 10uM final compound concentration.
# We first characterized the binding of the full-length HuR with 11-mer polyribonucleotide derived from the 3’ UTR of the mRNA of the C-fos oncogene (Fig 1A). The binding curves were obtained by keeping the 5’FAM-RNA at 10 nM and adding increasing amounts of HuR. The apparent dissociation constant for the HuR/RNA binding was estimated to be approximately 20 nM (Fig 1A) using the simplified equation as described. To evaluate the expected effect of the inhibitors on the FP readout of the essay, we measured displacement of the fluorescently labeled RNA by the unlabeled RNA (Fig 1B). In displacement assay, the 10nM of 5’FAM-RNA concentration was mixed with 50nM at which fluorescence polarization value was approximately 80% of the maximal value. Fluorescence polarization was measured as a function of the unlabeled RNA concentration. IC50 was obtained (~40nM) by fitting to the equation specified in the figure legend (Fig 1B)
# Supplementary file pone.0138780.s002.tif: S2 Fig Dose responses of hits on confirmed hits from primary screening. Compounds at 250uM in final concentration in the assay volume of 25uL were added to the mixture of 10nM RNA and 50nM HuR in the first well in 384 format plate followed by a serial dilution into next well where the concentration of RNA and HuR was kept constant. (TIF) Click here for additional data file.
# Supplementary file pone.0138780.s010.doc: S1 Table IC50 for confirmed hits from primary HTS screening. IC50s were obtained by fitting to the equation of ΔP = ΔPmax/(1+10^((Logx0-X)*p)). (DOC) Click here for additional data file.
# T1 sequence (Q15717 whole entry): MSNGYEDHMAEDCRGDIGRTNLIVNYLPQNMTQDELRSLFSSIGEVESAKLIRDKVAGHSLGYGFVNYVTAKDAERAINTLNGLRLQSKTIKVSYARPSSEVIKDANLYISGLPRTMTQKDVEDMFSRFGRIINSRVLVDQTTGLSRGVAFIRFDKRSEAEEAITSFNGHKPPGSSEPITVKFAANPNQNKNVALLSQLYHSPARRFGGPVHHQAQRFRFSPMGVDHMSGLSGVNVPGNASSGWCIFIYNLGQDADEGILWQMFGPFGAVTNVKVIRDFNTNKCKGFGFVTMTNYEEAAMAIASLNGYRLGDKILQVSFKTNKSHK
row,Molecule,IC50
1,Cc1ccc(Nc2ccc(N)cc2S(=O)(=O)O)cc1 [C2],41 µM
2,O=C(O)c1cc(N2C(=O)C=CC2=O)cc(N2C(=O)C=CC2=O)c1 [C3],26.9 µM
3,CSc1nc(N)c(N=Nc2ccc([As](=O)(O)O)cc2)c(=O)[nH]1 [C6],2.7 µM
4,CCOC(=O)C(=O)Cc1cccnn1 [C7],4.6 µM
5,COC(=O)CC1OCC=C2CN3CCC45C6=CC(=O)C(=O)C([N+](=O)[O-])=C6NC4C1C2CC35 (stereo not drawn) [C9],69.6 µM
6,COc1cccc2c1C(=O)c1c(O)c3c(c(O)c1C2=O)CC(O)(/C(C)=N/O)CC3OC1CC(N)C(O)C(C)O1 (stereo not drawn) [C10],21.7 µM
7,CO[C@@H]1[C@@H](OC(=O)c2ccc(C)[nH]2)[C@@H](O)[C@H](Oc2ccc3c(O)c(NC(=O)c4ccc(O)c(CC=C(C)C)c4)c(=O)oc3c2Cl)OC1(C)C [C11],41.9 µM

# The remaining lines, values ahead:
row,IC50,Molecule
1,97.4 µM,O=C(Nc1cccc([N+](=O)[O-])c1)c1ccc2ccccc2c1O [C4]
2,16.7 µM,O=C(O)C1=NN(c2cc(Cl)c(S(=O)(=O)O)cc2Cl)C(=O)C1 [C5]
3,44.4 µM,CC#CC#Cc1cccc(=O)o1 [C8]
4,17.4 µM,COCC(=O)OC1CCn2c1nc1c2C(=O)C(C)=C(NC(C)=O)C1=O (stereo not drawn) [C12]

# Target: T2, Full length HuR (Homo sapiens, UniProt Q15717)
# T2 construct: Full length (residue 1–326), RRM1-2 (residue 1–190); inferred from pET14b vector and metal chelation chromatography) (N); made in house; host or cells: E. coli BL21 Rosetta
# Experiment: Sedimentation velocity analytical ultracentrifugation (AUC) of HuR dimer/oligomer
# Type: biochemical
# Settings: 10uM HuR and 20uM compounds
# Protocol: Sedimentation velocity analytical ultracentrifugation was performed on a Beckman XLA analytical ultracentrifuge using an AN50 Ti rotor with standard Epon 2-channel centerpieces. The samples were spun at 25000rpm for~12hrs at 20 C. 25 scans measuring absorbance at 280nm were collected. The data were analyzed using Ultrascan III software.
# Supplementary file pone.0138780.s005.tif: S5 Fig Post-hit validation using analytical ultracentrifugation (AUC). Sedimentation velocity studies are informative of the overall shape of molecule. […] We tested 4 compounds from secondary screening. 30% and 50% fraction of boundary were in orange. […] (TIF) Click here for additional data file.
# T2 sequence (Q15717 whole entry): as above
row,effect on formation of HuR dimer/oligomer (shift of boundary toward monomer),Molecule
1,did not,Cc1ccc(Nc2ccc(N)cc2S(=O)(=O)O)cc1 [C2]
2,did not,CC#CC#Cc1cccc(=O)o1 [C8]

# Target: T3, HuR full length (UniProt Q15717 1-326)
# Experiment: fluorescence polarization; 10 nM RNA; apparent Kd; FP: 50 mM Na phosphate, 100 mM NaCl, 5 mM TCEP, pH 7.0, 384-well plate; temperature not stated; NMR conditions not in material
# Settings: protein: recombinant; (pET14b, metal chelation); label: 5'-FAM; single strand
# T3 sequence (Q15717 whole entry): as above
row,Molecule,Kd
1,AUUUUUAUUUU (ssRNA) [5'-FAM c-Fos 11-mer ARE RNA],~0.02 µM

# Target: T3, HuR full length
# Experiment: competition (fluorescence polarization); displacement of 10 nM 5'-FAM RNA (N1) from 50 nM HuR; FP: 50 mM Na phosphate, 100 mM NaCl, 5 mM TCEP, pH 7.0, 384-well plate; temperature not stated; NMR conditions not in material
# Settings: protein: recombinant; (pET14b, metal chelation); single strand
row,Molecule,IC50
1,AUUUUUAUUUU (ssRNA) [unlabeled c-Fos 11-mer ARE RNA],~0.04 µM

# From article PMC4577092, “Identification of Small-Molecule Inhibitors of the HuR/RNA Interaction Using a Fluorescence Polarization Screening Assay Followed by NMR Validation” (PLoS ONE, 2015)
